Data on 5 compounds can be found in patent EP3442964B1, “NOVEL N-[(PYRIMIDINYLAMINO)PROPANYL]-AND N [(PYRAZINYLAMINO)PROPANYL]ARYLCARBOXAMIDES” (Boehringer Ingelheim International GmbH, priority 2016, dated 2017).

A short description of series [1]: Assay C: metabolic stability in human liver microsomes (human MST). Type of series: in vitro ADME. As to conditions: pooled human liver microsomes, pH 7.6, 1 µM test compound, 37°C. The source says: Stability in human liver microsomes refers to the susceptibility of compounds to biotransformation in the context of selecting and/or designing drugs with favorable pharmacokinetic properties. The primary site of metabolism for many drugs is the liver. Human liver microsomes contain the cytochrome P450s (CYPs), and thus represent a model system for studying drug metabolization in vitro. Enhanced stability in human liver microsomes is associated with several advantages, including increased bioavailability and longer half-life, which can enable lower and less frequent dosing of patients. Thus, enhanced stability in human liver microsomes is a favorable characteristic for compounds that are to be used for drugs.
The metabolic stability of the compounds according to the invention may be investigated as follows: The metabolic degradation of the test compound is assayed at 37°C with pooled human liver microsomes. The final incubation volume of 100 µL per time point contains TRIS buffer pH 7.6 at room temperature (0.1 M), MgCl2 (5 mM), microsomal protein (1 mg/mL) and the test compound at a final concentration of 1 µM. Following a short pre-incubation period at 37°C , the reactions are initiated by addition of beta-nicotinamide adenine dinucleotide phosphate, reduced form (NADPH, 1 mM), and terminated by transferring an aliquot into solvent after different time points. After centrifugation (10000 g, 5 min), an aliquot of the supernatant is assayed by LC-MS/MS for the amount of parent compound. The half-life (t1/2) is determined by the slope of the semi-logarithmic plot of the concentration-time profile.

The target in series [2] is T1, OX2R (Homo sapiens, UniProt O43614).
T1 sequence (O43614 1-444): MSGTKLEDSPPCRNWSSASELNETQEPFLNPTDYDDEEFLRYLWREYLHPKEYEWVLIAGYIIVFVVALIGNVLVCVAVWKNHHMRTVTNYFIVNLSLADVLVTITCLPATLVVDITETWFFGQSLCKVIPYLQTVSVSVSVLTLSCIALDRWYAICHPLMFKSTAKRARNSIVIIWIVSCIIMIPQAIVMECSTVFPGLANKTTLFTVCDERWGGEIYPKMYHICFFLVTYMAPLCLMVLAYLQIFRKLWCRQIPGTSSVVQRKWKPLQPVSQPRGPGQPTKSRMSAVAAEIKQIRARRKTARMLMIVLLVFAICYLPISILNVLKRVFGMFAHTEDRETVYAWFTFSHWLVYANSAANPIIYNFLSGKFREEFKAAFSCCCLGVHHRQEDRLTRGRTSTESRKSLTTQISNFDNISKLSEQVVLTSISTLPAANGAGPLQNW
As to conditions: as described in WO2013/187466; agonist 3 nM modified orexin A; cited from earlier work.

Another series concerns the target T2, human MDR1 P-gp (Homo sapiens, UniProt P08183).
T2 construct: expressed in transfected cells; host or cells: MDCK (MDCK-MDR1)
The series can be described thus: Assay D: efflux in MDCK cells transfected with the human MDR1 gene. Type of series: in vitro ADME. As to conditions: MDCK-MDR1 monolayers, pH 7.4, 37°C, read-out: Assay D:MDCK efflux ratio (BA/AB). As for the experimental part: The MDCK assay provides information on the potential of a compound to pass the blood brain barrier. Permeability measurements across polarized, confluent MDCK-MDR1 cell monolayers grown on permeable filter supports are used as an in vitro absorption model: apparent permeability coefficients (PE) of the compounds across the MDCK-MDR1 cell monolayers are measured (pH 7.4, 37°C) in apical-to-basal (AB) and basal-to-apical (BA) transport direction. The AB permeability (PEAB) represents drug absorption from the blood into the brain and the BA permeability (PEBA) drug efflux from the brain back into the blood via both, passive permeability as well as active transport mechanisms mediated by efflux and uptake transporters that are expressed on the MDCK-MDR1 cells, predominantly by the overexpressed human MDR1 P-gp. Identical or similar permeabilities in both transport directions indicate passive permeation, vectorial permeability points to additional active transport mechanisms. Higher PEBA than PEAB (PEBA/PEAB > 5) indicates the involvement of active efflux mediated by MDR1 P-gp, which might compromises the goal to achieve sufficient brain exposure. Therefore this assay provides valuable support for selection of compounds applicable for further in vivo testing. High permeability not limited by efflux at the blood brain barrier is a favourable characteristic for compounds that are to be used for drugs acting primarily in the CNS
Apparent permeability coefficients (PE) of the compounds across the MDCK-MDR1 cell monolayers are measured (pH 7.4, 37°C) in apical-to-basal (AB) and basal-to-apical (BA) transport direction. AB permeability (PEAB) represents drug absorption from the blood into the brain and BA permeability (PEBA) drug efflux from the brain back into the blood via both passive permeability as well as active transport mechanisms mediated by efflux and uptake transporters that are expressed on the MDCK-MDR1 cells, predominantly by the overexpressed human MDR1 P-gp. The compounds are assigned to permeability/absorption classes by comparison of the AB permeabilities with the AB permeabilities of reference compounds with known in vitro permeability and oral absorption in the human. Identical or similar permeabilities in both transport directions indicate passive permeation, vectorial permeability points to additional active transport mechanisms. Higher PEBA than PEAB indicates the involvement of active efflux mediated by MDR1 P-gp. Active transport is concentration- dependently saturable.
MDCK-MDR1 cells (1-2 x 10e5 cells/1 cm2 area) are seeded on filter inserts (Costar transwell polycarbonate or PET filters, 0.4 µm pore size) and cultured (DMEM) for 7 days. Subsequently, the MDR1 expression is boosted by culturing the cells with 5 mM sodium butyrate in full medium for 2 days. Compounds are dissolved in appropriate solvent (like DMSO, 1 -20 mM stock solutions). Stock solutions are diluted with HTP-4 buffer (128.13 mM NaCl, 5.36 mM KCI, 1 mM MgSO4, 1.8 mM CaCl2, 4.17 mM NaHCO3, 1.19 mM Na2HPO4 x 7H2O, 0.41 mM NaH2PO4xH2O, 15 mM HEPES, 20 mM glucose, 0.25 % BSA, pH 7.4) to prepare the transport solutions (0.1 - 300 µM compound, final DMSO <= 0.5 %). The transport solution (TL) is applied to the apical or basolateral donor side for measuring A-B or B-A permeability (3 filter replicates), respectively. The receiver side contains the same buffer as the donor side. Samples are collected at the start and end of experiment from the donor and at various time intervals for up to 2 hours also from the receiver side for concentration measurement by HPLC-MS/MS or scintillation counting. Sampled receiver volumes are replaced with fresh receiver solution.

The target in series [3] is T3, OX1R (Homo sapiens, UniProt O43613).
T3 sequence (O43613 1-425): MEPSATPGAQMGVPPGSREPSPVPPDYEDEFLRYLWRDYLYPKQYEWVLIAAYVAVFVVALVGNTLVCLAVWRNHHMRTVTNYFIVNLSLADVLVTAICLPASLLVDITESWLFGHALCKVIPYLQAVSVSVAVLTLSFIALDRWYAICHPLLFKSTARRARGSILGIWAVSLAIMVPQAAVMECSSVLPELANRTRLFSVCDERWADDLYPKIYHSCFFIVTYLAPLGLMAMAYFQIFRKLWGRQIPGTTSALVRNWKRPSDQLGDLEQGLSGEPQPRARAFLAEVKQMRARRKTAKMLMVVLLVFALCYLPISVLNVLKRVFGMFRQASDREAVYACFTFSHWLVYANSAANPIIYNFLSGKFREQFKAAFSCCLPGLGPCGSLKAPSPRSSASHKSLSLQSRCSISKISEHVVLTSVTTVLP
Briefly: OX1R assay as described in WO2016/034882.

Series [4] addresses T3, OX1R. As to conditions: cited from earlier work.
The target of series [5] is T1, OX2R. The following applies: cited from earlier work.
The target of another series is T4, human orexin 2 receptor (Homo sapiens, UniProt O43614).
T4 sequence (O43614 1-444): T1 sequence (O43614 1-444)
Type of series: cell-based. The following applies: 0.5 nM Orexin A. The source says: Chem. Genomics 2009, 3, 22-32.

The mark [6] stands for this setting: read-out: Assay C: Human MST t1/2.
Where [7] appears, read: corresponds to pIC50 of Table 1 of WO2016/034882.
[8] abbreviates: corresponds to pIC50 of Table 3 of WO2016/034882.
[9] abbreviates: from values of Table 3 of WO2016/034882.

Where two headings read alike, the source gives them in different places.

T2 sequence (P08183 whole entry): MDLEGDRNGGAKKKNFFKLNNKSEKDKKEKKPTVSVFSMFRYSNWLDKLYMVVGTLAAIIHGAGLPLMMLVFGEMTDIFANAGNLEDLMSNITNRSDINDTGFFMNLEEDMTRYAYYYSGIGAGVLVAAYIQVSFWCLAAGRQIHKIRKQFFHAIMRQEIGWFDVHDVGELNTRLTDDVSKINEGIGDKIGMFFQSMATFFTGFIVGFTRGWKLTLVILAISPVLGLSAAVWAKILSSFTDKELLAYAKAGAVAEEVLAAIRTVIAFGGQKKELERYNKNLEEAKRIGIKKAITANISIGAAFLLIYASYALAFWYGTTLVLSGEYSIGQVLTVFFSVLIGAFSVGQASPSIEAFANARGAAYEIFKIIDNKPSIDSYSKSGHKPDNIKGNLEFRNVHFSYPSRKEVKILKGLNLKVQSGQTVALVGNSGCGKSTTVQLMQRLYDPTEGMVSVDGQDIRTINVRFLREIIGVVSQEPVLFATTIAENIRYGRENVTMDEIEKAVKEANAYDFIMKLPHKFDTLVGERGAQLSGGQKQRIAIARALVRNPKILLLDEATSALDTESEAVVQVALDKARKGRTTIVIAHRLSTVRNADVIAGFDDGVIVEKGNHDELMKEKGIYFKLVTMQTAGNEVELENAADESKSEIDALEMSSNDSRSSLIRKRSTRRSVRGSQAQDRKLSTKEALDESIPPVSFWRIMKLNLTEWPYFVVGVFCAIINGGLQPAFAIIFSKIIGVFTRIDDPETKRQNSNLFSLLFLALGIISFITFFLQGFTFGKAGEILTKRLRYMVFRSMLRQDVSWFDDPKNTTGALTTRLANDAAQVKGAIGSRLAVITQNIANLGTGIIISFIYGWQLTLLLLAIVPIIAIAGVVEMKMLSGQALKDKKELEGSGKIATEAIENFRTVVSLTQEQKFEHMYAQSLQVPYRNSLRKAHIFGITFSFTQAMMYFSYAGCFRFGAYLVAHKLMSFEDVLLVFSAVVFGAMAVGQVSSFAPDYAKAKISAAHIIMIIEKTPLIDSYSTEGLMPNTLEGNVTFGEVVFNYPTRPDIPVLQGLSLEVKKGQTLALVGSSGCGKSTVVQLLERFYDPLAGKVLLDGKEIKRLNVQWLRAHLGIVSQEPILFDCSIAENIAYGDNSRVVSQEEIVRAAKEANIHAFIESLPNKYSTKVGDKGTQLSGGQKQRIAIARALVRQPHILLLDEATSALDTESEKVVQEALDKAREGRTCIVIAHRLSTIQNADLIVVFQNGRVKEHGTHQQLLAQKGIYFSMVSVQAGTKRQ

In the case of `C[C@@H](Cn1ccc(-c2ccc(F)cn2)n1)N(C)C(=O)c1cc(F)ccc1-c1ncccn1` [Example 5 in WO2013/187466, reference compound], the half-life at 1 µM in series [1] (read-out: Data as determined in Assay C: Human MST t1/2) stood at 30 min. Also, the IC50 on OX2R [2] was 76 nM.
For the compound `CC[C@@H](CNc1cnc(C(F)(F)F)cn1)N(C)C(=O)c1cc(Cl)ccc1-n1nccn1` [Example 40 in WO2016/034882], in series [1] (setting [6]), the half-life at 1 µM was 9 min. The efflux ratio on human MDR1 P-gp was less than 3. For the same compound, on OX1R [3] (from values of Table 1 of WO2016/034882), the “OX2R IC50/OX1R IC50” value was “Table 1: 156”. Also, the values for the IC50 at OX1R [4] (setting [7]) and on OX2R [5] (setting [7]) were 16 nM and 2500 nM, respectively.
For `CC[C@@H](CNc1ncc(C(F)(F)F)cn1)N(C)C(=O)c1nc(C)ccc1-n1nccn1` [Example 46 in WO2016/034882], the half-life at 1 µM in series [1] (setting [6]) stood at 32 min. In addition, the efflux ratio on human MDR1 P-gp was less than 3. Further, the IC50 is 20 nM on OX1R [4] (setting [7]), more than 10000 nM on OX2R [5] (corresponds to pIC50 of Table 2 of WO2016/034882) and not below 10000 nM at OX2R [5] (setting [8]). For the same compound, the “OX2R pIC50” value at OX2R [5] (Table 1 of WO2016/034882) is given as 5.1; at OX2R [5] (Table 2 of WO2016/034882), less than 5.0; at OX2R [5] (Table 3 of WO2016/034882) it was less than 5.0.
In the case of `CC[C@@H](CNc1ncc(C(F)(F)F)cn1)N(C)C(=O)c1nc(C)ccc1-n1cccn1` [Example 90 in WO2016/034882], the half-life at 1 µM in series [1] (setting [6]) amounted to 26 min. For the same compound, at human orexin 2 receptor, the Kb was determined as 974 nM. Also, on human MDR1 P-gp, the efflux ratio is less than 3. For the same compound, the “OX2R IC50/OX1R IC50” value on OX1R [3] (setting [9]) is listed as “Table 3: >526”. The IC50 was 1.9 nM on OX1R [4] (setting [8]) and more than 1000 nM at OX2R [5] (setting [8]). In addition, at OX2R [5] (Table 3 of WO2016/034882), the “OX2R pIC50” value is less than 6.0.
Take `CC[C@@H](CNc1ncc(C(F)(F)F)cn1)N(C)C(=O)c1c(F)cccc1-n1nccn1` [Example 91 in WO2016/034882]: the half-life at 1 µM in series [1] (setting [6]) was more than 120 min. Besides, at human MDR1 P-gp, the efflux ratio was less than 3. Also, the “OX2R IC50/OX1R IC50” value at OX1R [3] (setting [9]) was “Table 3: 318”. In addition, the figures for the IC50 at OX1R [4] (setting [8]) and at OX2R [5] (setting [8]) were 25 nM and not below 7950 nM, respectively. Besides, the “OX2R pIC50” value at OX2R [5] (Table 3 of WO2016/034882) is less than 5.1.
